Assay results as given in US20170037030A1, “AUTOTAXIN INHIBITORS” (NOVARTIS AG, priority 2014, published 2017).

Molecular target: T1, Recombinant human ATX (Homo sapiens, UniProt Q13822)
T1 construct: made in house; host or cells: human embryonic kidney (HEK) cells
Assay: ATX inhibition assay (released choline, Amplex Red fluorescence)
Assay type: biochemical
Conditions: ATX 10 nM, LPC 18:1 10 μM, pre-incubated with ATX at 37° C. for 20 minutes; mean of n≧2
Procedure: Reagents—LPC (oleoyl (18:1)) was purchased from Avert Polar Lipids (Alabaster, Ala.) and solubilized in methanol to 20 mM. Amplex Red was obtained from Invitrogen Life Technologies (Paisley, UK) and dissolved in DMSO to 10 mM. Choline oxidase and horseradish peroxidase (HRP) were obtained from Sigma Aldrich (Dorset, UK) and dissolved in HBSS to 20 U/ml and 200 U/ml respectively. All reagents were stored at −20° C. in single use aliquots. All experimental measurements were performed in assay buffer made up immediately prior to use (HBSS, 0.01% BSA essentially fatty acid free). […]
Method—All experimental measurements were performed in black 384 well polystyrene (low volume, round bottom, Corning (3676)) plates. PerkinElmer EnVision (Fluorescence Intensity/Absorbance Monochromator) or Tecan Infinite 200 PRO series plate reader was used to detect change in fluorescent intensity.
Assessing ATX inhibition—ATX activity was determined by measurement of released choline in reactions containing ATX (10 nM), choline oxidase (0.1 U/ml), HRP (100 U/ml), amplex red (50 μM) and LPC 18:1 (10 μM). […] The liberated choline was measured from changes in fluorescence intensity (Aex 530 nm, Aem 590 nm) of the product resurofin at 37° C. every 2 minutes over a 40-minute period. ATX activity was measured as a slope of the linear portion of the progress curve, typically between 14 to 24 minutes. […]

| SMILES | IC50 [µM] |
| --- | --- |
| O=C(CCC(=O)c1c[nH]nn1)NC1CCN(C(=O)OCc2cc(Cl)cc(Cl)c2)CC1 [Example 1, 3,5-dichlorobenzyl 4-(4-oxo-4-(1H-1,2,3-triazol-4-yl)butanamido)piperidine-1-carboxylate] | 0.07 |
| O=C(CCC(O)c1c[nH]nn1)NC1CCN(C(=O)OCc2cc(Cl)cc(Cl)c2)CC1 (centres unmarked) [Example 2, 3,5-dichlorobenzyl 4-(4-hydroxy-4-(1H-1,2,3-triazol-4-yl)butanamido)piperidine-1-carboxylate] | 0.01 |
